Our source for the viability, T/C and IC50 values is PubChem BioAssay AID1963825 (Molecular Pharmacology Branch, DTP, NCI, 2024).

Several values for one entry are separate records, joined by “and”; a condition that tells them apart may be missing. Equal values may be shown once. Bounds are passed on as bounds.

A short description of this experiment: Anticancer human tumor 997537-175-T-J1-PDC patient-derived colon adenocarcinoma cell line growth inhibition [POLQ]. To be noted: 997537-175-T-J1-PDC complex spheroid viability, combination with POLQ inhibitors; for viability, T/C: stronger effect = lower value; for IC50: curve of compound. Here is the method: Multicellular complex tumor spheroid response to Polymerase (POL) inhibitors (novobiocin, ART-558, RP6685) in combination with a variety of drugs and investigational agents in selected tumor cell lines
The POL inhibitors (novobiocin, ART-558, and RP6685) were evaluated both individually and in combination with standard of care and investigational anticancer small molecules within a complex spheroid model of solid tumors. . Complex spheroids include a stromal component modeled by human endothelial cells (HUVEC) and fibroblasts modeled by human mesenchymal stem cells (MSCs). The concentration ranges selected for each drug and investigational agent were based upon clinically achievable concentrations if the clinical Cmax of the agent was known.
Compounds. The drugs and investigational agents: novobiocin (NSC847541), ART-558 (NSC835418), RP-6685 (NSC848927), peposertib (NSC802822), ceralasertib (NSC780249), elimusertib (NSC800525), camonsertib (NSC841442), AZD-1390 (NSC803789), olaparib (NSC753686), talazoparib (NSC767125), rucaparib (NSC756644), sotorasib (NSC818433), MRTX-1133 (NSC836407), SN-38 (NSC673596), topotecan (NSC609699), epotoside (NSC141540), doxorubicin (NSC123127), gemcitabine (NSC613327), 5-fluorouracil (NSC19893), paclitaxel (NSC125973), vemurafenib (NSC761431), MSA-2 (NSC828583), SN-011 (NSC837082), adavosertib (NSC754352), prexasertib (NSC758257), carboplatin (NSC241240) and oxaliplatin (NSC266046), were obtained from the National Cancer Institute (NCI) Developmental Therapeutics Program Chemical Repository (21). The FDA-approved anticancer drug set is available from the Developmental Therapeutics Program at https://dtp.cancer.gov/organization/dscb/obtaining/. […] The stock solutions were prepared in dimethyl sulfoxide (DMSO, Sigma-Aldrich, St. Louis, MO, cat. D2650), except for the platinum compounds which were prepared in saline (Quality Biological, Gaithersburg, MD, cat. 114-055-101), at 800-fold the tested concentration and stored at -70 degrees C prior to their use. All drugs and investigational agents were tested over a range starting from a high concentration at or near the clinical Cmax and decreasing in half-log increments. If the clinical Cmax for an agent had not been determined, the highest concentration tested was 10 microM, except for SN-38, which was tested at a high concentration of 1 microM.
Cell Culture. All cells were maintained in an incubator at 37 degrees C and 5% CO2 with 95% humidity. The PDC lines were cultured according to standard operating procedures established by the NCI PDMR (https://pdmr.cancer.gov). Table 3 of the manuscript, lists the cell lines along with the number of the three cell types plated to form the mct-spheroids and media for tumor cell growth. After thawing, all PDC lines, except 997537-175-T-J1-PDC and 415267-285-R-J2-PDC, were cultured in Matrigel-coated flasks prepared with a working solution of 1X Ham's F-12 nutrient mix, without supplementation (Thermo Fisher Scientific, cat. 11765054), 100 U/mL penicillin-streptomycin (Thermo Fisher Scientific, cat. 15140122), and 2.5% Matrigel (Corning Inc., Corning, NY, cat. 354248) for the first three passages. The two PDC lines 997537-175-T-J1-PDC and 415267-285-R-J2-PDC were cultured on uncoated flasks. The 857933-349-R-J2-PDC line was cultured in 6C/Colon 1B media containing advanced DMEM/F-12 (Thermo Fisher Scientific, cat. 12634028), 10 mM HEPES (Thermo Fisher Scientific, cat. 15630080), 1X GlutaMAX supplement (Thermo Fisher Scientific, cat. 35050061), 0.1 mg/mL primocin (InvivoGen, San Diego, CA, cat. ant-pm-2), 10% defined fetal bovine serum, heat inactivated (HyClone Laboratories Inc., Logan, UT, cat. SH30070.03HI), 50% L-WRN conditioned media (ATCC, cat. CRL-3276), 1.25 mM N-Acetyl-L-cysteine (Sigma-Aldrich, cat. A9165), 10 mM nicotinamide (Sigma-Aldrich, cat. N0636), 1X B-27 supplement (Thermo Fisher Scientific, cat. 17504044), 1X N-2 supplement (Thermo Fisher Scientific, cat. […]
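Note: luminescence signal used as a surrogate for viable cells; spheroids exposed to drugs for seven days before readout.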

What is called viability, T/C is the ratio of treated to control. As usually defined, the IC50 is the concentration that gives 50% inhibition. `C=CCn1c(=O)c2cnc(Nc3ccc(N4CCN(C)CC4)cc3)nc2n1-c1cccc(C(C)(C)O)n1`: the IC50 was more than 1 µM. The viability, T/C (compound 0.00316 µM) was 98.4% and 90.3% and 83.5%. For the same compound, the viability, T/C (compound 0.01 µM) was 96.6% and 88.9% and 102%. The viability, T/C (compound 0.0316 µM) was 73.2% and 89.1% and 83.6%. Further, the viability, T/C (compound 0.1 µM) is 94% and 101% and 86.6%. Besides, the viability, T/C (compound 0.316 µM) was 95.9% and 94.9% and 76.8%. Further, the viability, T/C (compound 1 µM) is 74.5% and 63.4% and 69.5%.
With `CC(=O)O[C@H]1C(=O)[C@@]2(C)[C@H]([C@H](OC(=O)c3ccccc3)[C@]3(O)C[C@H](OC(=O)[C@H](O)[C@@H](NC(=O)c4ccccc4)c4ccccc4)C(C)=C1C3(C)C)[C@]1(OC(C)=O)CO[C@@H]1C[C@@H]2O`, the IC50 was 0.0125 µM and 0.0207 µM and < 0.00949 µM. Further, the viability, T/C (compound 0.00949 µM) is 55.5% and 66.9% and 49.9%. Besides, the viability, T/C (compound 0.03 µM) is 33.4% and 42.3% and 41.3%. In addition, the viability, T/C (compound 0.0949 µM) was 22.8% and 35.5% and 38.7%. For the setting “compound 0.3 µM”, the viability, T/C was 32.1% and 41.2% and 22.7%. The viability, T/C (compound 0.949 µM) is 32% and 28.6% and 22%. Besides, the viability, T/C (compound 3 µM) was 30.9% and 40.5% and 33.2%.
Turning to `CC1COCCN1c1cc(-c2ccnn2C)c2ccnc(-c3ccn[nH]3)c2n1` (stereo not given), the viability, T/C is 94.7% and 97.9% and 86.9% (compound 0.0316 µM); 62% and 63.5% and 79.7% (compound 0.1 µM); 64.5% and 49% and 65.9% (compound 0.316 µM); 44.2% and 44.4% and 50.7% (compound 1 µM); 68% and 32.4% and 51.1% (compound 3.16 µM); 60.6% and 53.7% and 53.6% (compound 10 µM).
As for `CC1COCCN1c1cc(C2(S(C)(=N)=O)CC2)nc(-c2ccnc3[nH]ccc23)n1` (stereo not given), the IC50 is 9.98 µM and > 10 µM. In addition, for the setting “compound 0.0316 µM”, the viability, T/C was 92.8% and 97.8% and 110%. Moreover, where the note is “compound 0.1 µM”, the viability, T/C was 99.5% and 101% and 102%. Moreover, where the note is “compound 0.316 µM”, the viability, T/C is 101% and 84.7% and 82.3%. In addition, under “compound 1 µM”, the viability, T/C is 91.7% and 86.5% and 92.7%. For the same compound, the viability, T/C (compound 3.16 µM) was 66% and 59.8% and 74.8%. Besides, where the note is “compound 10 µM”, the viability, T/C was 49.9% and 58.9% and 53.6%.
Turning to `CCCS(=O)(=O)Nc1ccc(F)c(C(=O)c2c[nH]c3ncc(-c4ccc(Cl)cc4)cc23)c1F`, the IC50 is 4.97 µM and 7.51 µM and 5.5 µM. Moreover, for the setting “compound 0.0316 µM”, the viability, T/C is 97.4% and 90.7% and 82.4%. Besides, the viability, T/C (compound 0.1 µM) was 82.1% and 86.5% and 97.7%. Where the note is “compound 0.316 µM”, the viability, T/C is 88.1% and 82.6% and 89.7%. Besides, the viability, T/C (compound 1 µM) is 86.5% and 84.5% and 82.5%. Moreover, the viability, T/C (compound 3.16 µM) was 65.1% and 72.9% and 76%. Further, where the note is “compound 10 µM”, the viability, T/C was 26.5% and 42% and 22.9%.
For `CC[C@@]1(O)C(=O)OCc2c1cc1n(c2=O)Cc2cc3c(CN(C)C)c(O)ccc3nc2-1`, the IC50 is more than 0.1 µM. Besides, for the setting “compound 0.000316 µM”, the viability, T/C is 100% and 93.8% and 93.3%. For the same compound, the viability, T/C (compound 0.001 µM) was 96.1% and 102% and 112%. The viability, T/C (compound 0.00316 µM) was 98.1% and 91.1% and 111%. The viability, T/C (compound 0.01 µM) is 105% and 101% and 97.3%. The viability, T/C (compound 0.0316 µM) is 94.5% and 75.5% and 93%. Besides, the viability, T/C (compound 0.1 µM) is 71.6% and 61.9% (2×).
Turning to `CCc1c2c(nc3ccc(O)cc13)-c1cc3c(c(=O)n1C2)COC(=O)[C@]3(O)CC`, the IC50 was 0.0172 µM and 0.0199 µM and 0.0184 µM. Further, the viability, T/C (compound 0.00316 µM) is 68.9% and 81% and 97.3%. Moreover, the viability, T/C (compound 0.01 µM) was 63.4% and 64.7% and 67%. Further, the viability, T/C (compound 0.0316 µM) is 35.3% and 40.2% and 35.2%. Further, the viability, T/C (compound 0.1 µM) was 19.1% and 17.6% and 15.7%. Besides, the viability, T/C (compound 0.316 µM) was 5.98% and 6.37% and 8.27%. Under “compound 1 µM”, the viability, T/C was 5.57% and 4.62% and 6.01%.
For `CNCc1ccc(-c2[nH]c3cc(F)cc4c3c2CCNC4=O)cc1`, the IC50 was more than 10 µM. Moreover, the viability, T/C (compound 0.0316 µM) was 90.4% and 94.4% and 96.8%. Moreover, the viability, T/C (compound 0.1 µM) is 96.6% and 93.5% and 90.8%. Moreover, the viability, T/C (compound 0.316 µM) is 91% and 108% and 106%. Further, the viability, T/C (compound 1 µM) was 98.3% and 93.2% and 88.9%. Also, the viability, T/C (compound 3.16 µM) was 100% and 103% and 99.9%. Also, the viability, T/C (compound 10 µM) is 95% and 98.8% and 89.1%.
